The NIST ThermoML archive (doi:10.1016/j.jct.2016.02.009)

Assay: molar heat capacity at constant pressure
Details: 101.33 kPa, Small (less than 1 g) adiabatic calorimetry

CCCCCCCCCCn1cc[n+](C)c1.O=S(=O)([N-]S(=O)(=O)C(F)(F)F)C(F)(F)F
molar heat capacity at constant pressure [J/K/mol]
Details	Crystal 2	Metastable crystal
142.54 K	–	368.4
144.48 K	358.2	372.5
146.41 K	–	376.6
146.45 K	361.5	–
148.35 K	–	380.7
148.41 K	365	–
150 K	367.5	384.3
150.28 K	–	384.8
150.38 K	368.2	–
152.21 K	–	389.1
152.35 K	371.7	–
154.14 K	–	393.4
154.32 K	375	–
155.25 K	376.4	–
156.07 K	–	397.7
157.33 K	380.2	–
157.99 K	–	402.2
159.29 K	383.4	–
159.91 K	–	406.6
160 K	384.7	406.8
161.26 K	387	–
161.83 K	–	411
163.22 K	390.1	–
163.75 K	–	415.7
165.19 K	393.6	–
165.66 K	–	420.2
167.15 K	397.2	–
167.56 K	–	425
169.11 K	400.7	–
169.47 K	–	429.9
170 K	402.3	431.2
171.07 K	404.1	–
171.37 K	–	434.6
173.03 K	407.6	–
173.27 K	–	440
174.98 K	411.2	–
175.16 K	–	445.5
176.93 K	414.8	–
177.04 K	–	451.4
178.88 K	418.4	–
178.92 K	–	458.1
180 K	420.7	462.6
180.78 K	–	466
180.83 K	422.1	–
182.64 K	–	476.8
182.78 K	426	–
184.47 K	–	489.9
184.72 K	430	–
186.29 K	–	501.9
186.66 K	434	–
188.1 K	–	507.1
188.59 K	438.2	–
189.9 K	–	510.3
190 K	440.9	510.3
190.52 K	442.2	–
191.71 K	–	511.1
192.45 K	446.2	–
193.51 K	–	514.8
194.38 K	450.4	–
195.31 K	–	521.6
196.3 K	455.3	–
197.11 K	–	529.9
198.22 K	460.2	–
198.89 K	–	539.6
200 K	463.2	546.2
200.13 K	465.1	–
200.65 K	–	550
202.1 K	470.5	–
202.46 K	–	568.9
204.12 K	476.2	–
204.28 K	–	599.4
206.02 K	–	683.4
206.13 K	482	–
207.65 K	–	752.9
208.14 K	487.2	–
209.38 K	–	552.2
210 K	489.1	513
210.15 K	491.5	–
211.31 K	–	512.9
212.15 K	495.6	–
213.27 K	–	512
214.15 K	500.9	–
215.24 K	–	515.4
216.13 K	507	–
217.2 K	–	523.2
218.12 K	513.6	–
219.17 K	–	551.8
220 K	519.8	–
220.09 K	520.6	–
221.12 K	–	812.2
222.05 K	528.2	–
224 K	536.2	–
225.95 K	545.3	–
227.87 K	555.4	–
229.79 K	567	–
230 K	569.2	–
231.68 K	580.6	–
233.56 K	594.7	–
235.42 K	610.3	–
237.26 K	624.9	–
